Data on one compound can be found in patent US7141661B2, “Non-steroidal anti-inflammatory drug activated gene with anti-tumorigenic properties” (The United States of America as represented by the …, priority 2000, dated 2006).

Common to all, as to assay type: cell-based, human
The test system of assay [1] is NAG-1. The assay can be described thus: Northern blot NAG-1 induction in A549 lung carcinoma cells. Conditions: 10 mM, 24 hr. As for the experimental part: (§1) NSAID-induced apoptosis is not restricted to colorectal cells, as NSAIDs can induce apoptosis in breast, lung, leukemia, and prostate cell lines. To test for the induction of NAG-1 by NSAIDs in different cell lines, A549 lung epithelial cells, MCF-7 mammary cells, PC-3 prostate cancer cells, and U937 leukemia cell lines were treated with several concentrations of INDO and aspirin. Then, as described above, Northern blot analysis was performed. […] Quiescent cells were grown for 24 hr in the presence of indicated NSAIDs. Total RNAs were isolated and subjected to Northern analysis using NAG-1 and β-actin as probes. The blots contained 10 μg of total RNA from INDO- or Aspirin (Asp)-treated cells with indicated doses. “V” indicates total RNAs from vehicle (0.2% DMSO) treated cells. The results shown are representative of those obtained in two experiments.

In the next assay the test system is HCT-116 cells. The assay can be described thus: Apoptosis and cell cycle by PI staining / FACS in HCT-116 cells. Conditions: HCT-116, 48 hr in presence of serum, maximally effective concentration, FACS. The method, then:
To determine whether NAG-1 gene expression is associated with NSAID-induced apoptosis or altered cell cycle kinetics, flow cytometric analysis of the distribution of cells at various stages of the cell cycle was performed. Apoptosis and cell cycle kinetics of INDO-treated HCT-116 cells were measured at different time points. HCT-116 cells were treated with INDO, stained with PI, and analyzed by flow cytometry. Seven thousand five hundred cells were examined by flow cytometry by gating on an area versus width dot plot to exclude cell debris and cell aggregates. Apoptosis is represented by the fold increase in sub-G1 population over 0 hr treatment.
The DNA content for NSAIDs, PPARγ ligand, and vehicle treated HCT-116 cells was determined by FACS. Cells were plated at a density of 4×10^5 cells/well in 2 ml of medium in 6 well plates, incubated for 16 h, and then treated with NSAIDs or TGZ in the presence of serum. After treatment, the cells were harvested, washed with PBS, fixed by the slow addition of cold 70% ethanol to a total of 1 ml, and stored overnight at 4° C. The fixed cells were pelleted, washed once with PBS, and stained in 1 ml of 20 μg/ml of propidium iodide (PI), 1 mg/ml RNase in PBS for 20 min. Seven thousand five hundred cells were examined by flow cytometry using Becton Dickinson FACSort equipped with CellQuest software, by gating on an area versus width dot plot to exclude cell debris and cell aggregates. Each cell cycle distribution was analyzed by the McCycle program using one cell cycle parameter. Apoptosis was measured based on the level of sub-diploid DNA contained in cells following treatment with NSAIDs or TGZ using CellQuest software.
Northern analysis was performed using NAG-1 and β-actin as probes. The data represent relative expression of NAG-1 mRNA over the control (1.0). Each NSAID was tested at 3 different concentrations and maximally effective concentration used for apoptosis determination. Apoptosis ratio by PI staining was measured by FACS. […] The data represent relative apoptosis ratio over vehicle treatment by PI staining methods. TACS™ Annexin V-FITC kit was also used to confirm apoptosis.

For assay [2], the system named is NAG-1. Briefly: Northern blot NAG-1 induction in U937 leukemia cells. The note with it: 24 hr. The method, then:
as §1

Assay [3] has as its system NAG-1. The assay can be described thus: Northern blot analysis of NAG-1 mRNA expression in HCT-116 cells. The note with it: HCT-116, 24 hr in absence of serum; relative NAG-1 mRNA over vehicle control (1.0); tested over the concentration range listed. As for the experimental part:
Upon reaching 60–80% confluence in 10 cm plates, the cells were treated at indicated concentrations and times with either different NSAIDs or PPARγ ligands in the absence of serum. Total RNAs were isolated using TRIzol reagent (Life Technologies) according to the manufacturer's protocol. For Northern blot analysis, […] of total RNA was denatured at 55° C. for 15 min and separated in a 1.2% agarose gel containing 2.2 M formaldehyde, and transferred to Hybond-N membrane ([…]). After fixing the membrane by UV, blots were prehybridized in hybridization solution (Rapid-hyb buffer, […]) for 1 hr at 65° C. followed by hybridization with cDNA labeled with [α-^32P]dCTP by random primer extension (DECAprimeII kit, Ambion). The probes used were either full-length NAG-1 fragment or PTGFB clone (generously provided by Dr. Bento-Soar of the University of Iowa). After 4 hr incubation at 65° C., the blots were washed once with 2×SSC/0.1% SDS at RT and twice with 0.1×SSC/0.1% SDS at 65° C. Messenger RNA abundance Was estimated by intensities of the hybridization bands of autoradiographs using Scion Image (Scion). Equivalent loading of RNA samples was confirmed by hybridizing the same blot with a ^32P-labeled b-actin probe which recognizes RNA of approximately 2 kb.
To determine whether other NSAIDs increased apoptosis and NAG-1 expression, tests were conducted to determine whether variants of NSAIDs induced NAG-1 gene expression and NSAID-induced apoptosis. Aspirin, ibuprofen, indomethacin, and sulindac sulfide were selected since they are known COX inhibitors. […] HCT-116 cells were treated with different NSAIDs (vehicle, 0.2% DMSO; aspirin, 10 mM; ibuprofen, 1 mM; sodium salicylate, 5 mM; sulindac sulfide, 50 μM; sulindac, 40 μM; acetaminophen, 100 μM) for 24 hr in the absence of serum. Northern analysis was performed using NAG-1 and β-actin as probes. Total RNAs were isolated from NSAID-treated HCT-116 cells after 24 hr treatment and Northern blot was performed using NAG-1 cDNA as a probe (data not shown). […] Each of the doses were as follows: aspirin (1, 5, 10 mM); ibuprofen (100, 500, 1000 μM); salicylate (1, 2.5, 5 mM); sulindac sulfide (1, 10, 50 μM); sulindac (10, 20, 40 μM); acetaminophen (10, 50, 100 μM). After 48 hr treatment with NSAIDs in the presence of serum, cells were harvested and assayed as described in FIG. 1C. Apoptosis detected by PI staining was measured by FACS, as known in the art (FIG. 2A; HCT-116 cells were treated with different NSAIDs (vehicle, 0.2% DMSO; Aspirin, 10 mM; Ibuprofen, 1 mM; Sodium Salicylate, 5 mM; Sulindac Sulfide, 50 μM; Sulindac, 40 μM; Acetaminophen, 100 μM) for 24 hr in the absence of serum. Northern analysis was performed using NAG-1 and β-actin as probes. The open bars represent the relative expression of NAG-1 mRNA over the control (vehicle). The hatched bars represent the relative apoptosis ratio over vehicle treatment by PI staining methods. N=3±S.D.).
In the Table below, HCT-116 cells were treated with different NSAIDs (vehicle, 0.2% DMSO) for 24 hr in the absence of serum. Northern analysis was performed using NAG-1 and β-actin as probes. The data represent relative expression of NAG-1 mRNA over the control (1.0). Each NSAID was tested at 3 different concentrations and maximally effective concentration used for apoptosis determination. Apoptosis ratio by PI staining was measured by FACS. After 48 hr treatment with NSAIDs in the presence of serum, cells were harvested and assayed. The data represent relative apoptosis ratio over vehicle treatment by PI staining methods. TACS™ Annexin V-FITC kit was also used to confirm apoptosis.

Assay [4] concerns NAG-1. The assay can be described thus: Northern blot NAG-1 induction in MCF-7 breast carcinoma cells. Conditions: MCF-7 cells, 10 mM, 24 hr. As for the experimental part:
as §1

The test system of assay [5] is NAG-1. Briefly: Northern blot NAG-1 induction in PC-3 prostate cells. Conditions: PC-3 cells, 10 mM, 24 hr. As for the experimental part:
as §1

As to `CC(=O)Oc1ccccc1C(=O)O` [Aspirin], the NAG-1 induction entry in the assay on NAG-1 [1], in the assay on NAG-1 [2] (10 mM), with NAG-1 [4] and in the assay with NAG-1 [5] was “high NAG-1 induction” each time. Besides, the “Apoptosis (PI Staining), relative apoptosis ratio over vehicle” value in the assay on HCT-116 cells was 3.5 ± 0.451. Further, in the assay with NAG-1 [2] (5 mM), the NAG-1 expression entry is on record as “significantly increased”. The “NAG-1 Induction (mRNA) Fold” value in the assay on NAG-1 [3] is 3.5 Fold.
